The target of data set [1] is Human immunodeficiency virus type 1 reverse transcriptase (Human immunodeficiency virus 1, UniProt Q72547). In words: Inhibition of HIV1 reverse transcriptase assessed as reduction in biotin-dUTP incorporation into template incubated for 1 hr by ELISA. (ELISA stands for enzyme-linked immunosorbent assay.)
For data set [2], the system named is Human immunodeficiency virus 1. Briefly: Antiviral activity against HIV1 harboring K103N mutant infected in human MT4 cells assessed as reduction in virus-induced cytopathic effect by MTT assay. As to conditions: Human immunodeficiency virus 1, MT4; call rule not given here. It is filed as functional, organism-based. Background: Damage to the host cells serves as the signal in cytopathic effect assays.

The subject of data set [3] is Human immunodeficiency virus 1. In words: Antiviral activity against HIV1 harboring Y188L mutant infected in human MT4 cells assessed as reduction in virus-induced cytopathic effect by MTT assay. The following applies: Human immunodeficiency virus 1, MT4. It is filed as functional, organism-based.
Data set [4] relates to Human immunodeficiency virus 1. Briefly: Antiviral activity against HIV1 harboring F227L/V106A mutant infected in human MT4 cells assessed as reduction in virus-induced cytopathic effect by MTT assay. It is filed as functional, organism-based. As to conditions: Human immunodeficiency virus 1, MT4.
In data set [5] the test system is Human immunodeficiency virus 1. In words: Antiviral activity against HIV1 harboring E138K mutant infected in human MT4 cells assessed as reduction in virus-induced cytopathic effect by MTT assay. The class given is functional, organism-based. As to conditions: Human immunodeficiency virus 1, MT4.
The subject of data set [6] is Human immunodeficiency virus 1. Briefly: Antiviral activity against HIV1 harboring L100I mutant infected in human MT4 cells assessed as reduction in virus-induced cytopathic effect by MTT assay. The class given is functional, organism-based. The following applies: Human immunodeficiency virus 1, MT4.
Data set [7] is described as follows: (§1) Cytotoxicity against human MT4 cells assessed as reduction in cell viability by MTT assay. It is filed as cell-based. The following applies: MT4 cells. (In general: Tetrazolium dyes change colour on reduction, which living cells bring about.)
The subject of data set [8] is Human immunodeficiency virus 1. In words: Antiviral activity against HIV1 RES056 harboring K103N/Y181C double mutant infected in human MT4 cells assessed as reduction in virus-induced cytopathic effect by MTT assay. The class given is functional, organism-based.
A short description of data set [9]: Selectivity index, ratio of CC50 for human MT4 cells to EC50 for antiviral activity against HIV 3B infected in human MT4 cells. It is filed as toxicity, cell-based. The following applies: read-out: Ratio CC50/EC50.
The nature of data set [10]: Selectivity index, ratio of CC50 for human MT4 cells to EC50 for antiviral activity against HIV HIV1 RES056 harboring K103N/Y181C double mutant infected in human MT4 cells. The class given is toxicity, cell-based. As to conditions: read-out: Ratio CC50/EC50.
Data set [11] concerns Human immunodeficiency virus 1. Briefly: Antiviral activity against HIV1 3B infected in human MT4 cells assessed as reduction in virus-induced cytopathic effect by MTT assay. It is filed as functional, organism-based. As to conditions: Human immunodeficiency virus 1, 3B.
Data set [12] concerns Human immunodeficiency virus 1. Briefly: Antiviral activity against HIV1 harboring Y181C mutant infected in human MT4 cells assessed as reduction in virus-induced cytopathic effect by MTT assay. It is filed as functional, organism-based. As to conditions: Human immunodeficiency virus 1, MT4.
The test system of data set [13] is Human immunodeficiency virus 1. In words: Potency index, ratio of etravirine EC50 to test compound EC50 for antiviral activity against HIV1 3B infected in human MT4 cells assessed as reduction in virus-induced cytopathic effect by MTT assay. The class given is functional.
The next data set relates to MT4. The data set is described as §1. It is filed as cell-based. As to conditions: mt4.
Data set [14] relates to Human immunodeficiency virus 1. Briefly: Potency index, ratio of etravirine EC50 to test compound EC50 for antiviral activity against HIV1 harboring K103N mutant infected in human MT4 cells assessed as reduction in virus-induced cytopathic effect by MTT assay. The class given is functional.
Where [15] appears, read: Human immunodeficiency virus 1, RES056, MT4, read-out: EC50.

Where only a bound is given, the exact number is not on record here.

The IC50 is the concentration that gives 50% inhibition. A word on the CC50: it is the concentration at which the toxic effect on the cells reaches its halfway point. `C=CC(=O)N1CCN(Cc2ccc(Nc3nccc(Oc4c(C)cc(/C=C/C#N)cc4C)n3)cc2)CC1`: the 50% inhibitory concentration (IC50) in data set [1] was determined as 71 nM. The EC50 in [2] was 10 nM; in data set [3] it was above 5210 nM; in data set [4] it was 870 nM; in data set [5], 41 nM; in data set [6], 34 nM; in data set [8] (setting [15]) it was above 5210 nM. The EC50 is 5.7 nM in [11] (read-out: EC50), 5.75 nM in [11] (read-out: pEC50 (converted)) and 84 nM in data set [12]. Besides, the CC50 in [7] amounted to 5210 nM. In addition, the selectivity ratio was 909 in data set [9] and below 1 in data set [10].

Regarding `Cc1cc(/C=C/C#N)cc(C)c1Oc1ccnc(Nc2ccc(CN3CC[S+]([O-])CC3)cc2)n1`, the half-inhibitory concentration (IC50) in data set [1] was 51 nM. Further, the EC50 in data set [2] worked out at 3.4 nM; in data set [3], 5200 nM; in data set [4], 350 nM; in data set [5], 9.8 nM; in data set [6], 20 nM; in data set [8] (setting [15]), 2680 nM. The values for the EC50 in data set [11] (read-out: EC50), in [11] (read-out: pEC50 (converted)) and in [12] were 2.4 nM, 2.4 nM and 67 nM, respectively. Besides, in data set [7], the 50% cytotoxic concentration (CC50) was determined as 23400 nM. Further, in data set [13], the “Ratio EC50” value amounted to 2. The selectivity ratio in data set [9] came out at 9860; in data set [10], 9.

As to `CCS(=O)(=O)N1CCN(Cc2ccc(Nc3nccc(Oc4c(C)cc(/C=C/C#N)cc4C)n3)cc2)CC1`, the half-inhibitory concentration (IC50) in [1] amounted to 52 nM. Besides, the EC50 in [2] is 4.9 nM; in data set [3] it was 1280 nM; in data set [4] it was 200 nM; in [5] it was 17 nM; in data set [6], 15 nM; in data set [8] (setting [15]) it was 980 nM. The EC50 in data set [11] (read-out: EC50) was 5.7 nM; in data set [11] (read-out: pEC50 (converted)), 5.75 nM; in data set [12] it was 46 nM. Moreover, in data set [7], the cytotoxic concentration (CC50) was found to be 4600 nM. For the same molecule, the figures for the selectivity ratio in data set [9] and in data set [10] were 810 and 5, respectively.

For the molecule `Cc1cc(C#N)cc(C)c1Oc1ccnc(Nc2ccc(CN3CCCN(S(=O)(=O)C4CC4)CC3)cc2)n1`, in data set [1], the concentration for half-maximal inhibition (IC50) was determined as 200 nM. Also, the half-maximal cytotoxic concentration (CC50) entry with MT4 is listed as “Not Active”. The EC50 entry in data set [8] (mt4) was “Not Active”; in data set [11] (read-out: EC50), 100 nM; in [11] (read-out: pEC50 (converted)) it was 100 nM.

Take `Cc1cc(/C=C/C#N)cc(C)c1Oc1ccnc(Nc2ccc(CN3CCS(=O)(=O)CC3)cc2)n1`: the IC50 in data set [1] amounted to 34 nM. Besides, the EC50 in data set [2] was determined as 1.9 nM; in data set [3] it was 3090 nM; in data set [4] it was 91 nM; in data set [5], 7.5 nM; in data set [6], 11 nM; in data set [8] (setting [15]), 1080 nM. In addition, the EC50 in [11] (read-out: EC50) was 2.1 nM; in data set [11] (read-out: pEC50 (converted)), 2.09 nM; in [12], 33 nM. In addition, the CC50 in data set [7] was 18500 nM. In addition, the figures for the “Ratio EC50” value in data set [13] and in data set [14] were 2 and 1.7, respectively. Besides, the selectivity ratio in data set [9] worked out at 8640; in [10], 17.

For the origin of these results see ChEMBL document CHEMBL4732113, “Exploiting the tolerant region I of the non-nucleoside reverse transcriptase inhibitor (NNRTI) binding pocket. Part 2: Discovery of diarylpyrimidine derivatives as potent HIV-1 NNRTIs with high Fsp values and favorable drug-like properties” (Eur J Med Chem, 2021).
